Experimental data reported in PMC11174489, “In Vitro Activation of Human Adrenergic Receptors and Trace Amine-Associated Receptor 1 by Phenethylamine Analogues Present in Food Supplements” (Nutrients, 2024).

Columns and labels:
Assay type in all cases: cell-based
[1] = target: T1, human adrenergic receptor (ADR) α1B (Homo sapiens, UniProt P35368); test: ADRα1B activation, Ca2+ influx (Fluo-8) in overexpressing chem-1 cells
T1 construct: host or cells: rat chem-1 cells
T1 sequence (P35368 1-520): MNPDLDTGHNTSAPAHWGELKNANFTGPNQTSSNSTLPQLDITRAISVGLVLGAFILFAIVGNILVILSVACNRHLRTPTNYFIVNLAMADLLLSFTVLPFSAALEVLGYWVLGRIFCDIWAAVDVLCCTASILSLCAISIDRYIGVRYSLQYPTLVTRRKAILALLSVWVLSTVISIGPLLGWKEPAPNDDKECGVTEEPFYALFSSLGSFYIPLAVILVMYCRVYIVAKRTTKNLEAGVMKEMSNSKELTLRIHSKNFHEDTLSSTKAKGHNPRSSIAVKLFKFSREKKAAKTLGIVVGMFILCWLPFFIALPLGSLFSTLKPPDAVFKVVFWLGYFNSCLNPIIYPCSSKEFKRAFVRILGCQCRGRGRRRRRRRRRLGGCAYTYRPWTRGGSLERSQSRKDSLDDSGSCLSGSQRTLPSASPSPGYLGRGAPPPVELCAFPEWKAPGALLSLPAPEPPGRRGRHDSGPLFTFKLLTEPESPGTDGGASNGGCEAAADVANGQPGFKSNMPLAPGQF
From the text: (§1) Cells overexpressing human ADRs α1A, α1B, α1D, α2A, α2B, β1 and β2 (Eurofins Discovery Services, St. Charles, MO, USA, product numbers: HTS087RTA, HTS158RTA, HTS216RTA, HTS096RTA, HTS157LRTA, HTS104RTA and HTS073RTA, respectively) were used to study the potency (EC50) and efficacy (Emax) of the selected compounds for these receptors by quantifying Ca^2+ influx upon receptor activation. ADRα1A, α1B, α1D, α2A, β1 and β2 were overexpressed in rat chem-1 cells. ADRα2B was overexpressed in HEK293 cells. The cells were seeded (10,000–50,000 cells/well) in a black 96-well plate (VWR International, Leuven, Belgium) and incubated at 37 °C and 5% CO2 for 24 h. After 24 h, the cells were washed with Hank’s balanced salt solution (HBSS) (Gibco, Paisley, UK) containing 0.35 g/L sodium bicarbonate and incubated with 5 µg/mL Fluo-8 AM in HBSS (pH 7.4) supplemented with 2.5 mM probenecid for 1 h. […] Peak tops of the obtained fluorescence response–time curves were corrected for baseline fluorescence and used to construct concentration–response relationships.
(§2) Concentration–response relationships for TAAR1 activation are presented as percentages of the maximal intracellular cAMP level induced by full the TAAR1 agonist phenethylamine and corrected for baseline cAMP accumulation. […] Experiments were run in duplicate in 7–9 independent experiments for ADR and were run in 3–5 independent experiments for TAAR1.

[2] = target: T2, human adrenergic receptor (ADR) α1D (Homo sapiens, UniProt P25100); test: ADRα1D activation, Ca2+ influx (Fluo-8) in overexpressing chem-1 cells
T2 construct: host or cells: rat chem-1 cells
T2 sequence (P25100 1-572): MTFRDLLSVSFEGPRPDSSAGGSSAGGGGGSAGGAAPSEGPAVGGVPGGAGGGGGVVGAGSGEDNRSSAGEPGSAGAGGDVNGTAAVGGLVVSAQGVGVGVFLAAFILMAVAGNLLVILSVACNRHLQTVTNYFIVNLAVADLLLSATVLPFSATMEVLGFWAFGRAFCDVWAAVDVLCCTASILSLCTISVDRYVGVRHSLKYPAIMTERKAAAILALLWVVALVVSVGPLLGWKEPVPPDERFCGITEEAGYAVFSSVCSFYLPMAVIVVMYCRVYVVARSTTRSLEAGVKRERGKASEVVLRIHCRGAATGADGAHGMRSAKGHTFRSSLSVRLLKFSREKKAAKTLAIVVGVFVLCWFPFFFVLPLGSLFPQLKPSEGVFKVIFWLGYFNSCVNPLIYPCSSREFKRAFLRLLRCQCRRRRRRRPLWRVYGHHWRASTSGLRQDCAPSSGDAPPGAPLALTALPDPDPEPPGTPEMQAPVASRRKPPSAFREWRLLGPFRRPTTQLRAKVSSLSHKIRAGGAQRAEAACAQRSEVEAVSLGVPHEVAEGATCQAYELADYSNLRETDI

[3] = target: T3, human adrenergic receptor (ADR) α2A (Homo sapiens, UniProt P08913); test: ADRα2A activation, Ca2+ influx (Fluo-8) in overexpressing chem-1 cells
T3 construct: host or cells: rat chem-1 cells
T3 sequence (P08913 1-465): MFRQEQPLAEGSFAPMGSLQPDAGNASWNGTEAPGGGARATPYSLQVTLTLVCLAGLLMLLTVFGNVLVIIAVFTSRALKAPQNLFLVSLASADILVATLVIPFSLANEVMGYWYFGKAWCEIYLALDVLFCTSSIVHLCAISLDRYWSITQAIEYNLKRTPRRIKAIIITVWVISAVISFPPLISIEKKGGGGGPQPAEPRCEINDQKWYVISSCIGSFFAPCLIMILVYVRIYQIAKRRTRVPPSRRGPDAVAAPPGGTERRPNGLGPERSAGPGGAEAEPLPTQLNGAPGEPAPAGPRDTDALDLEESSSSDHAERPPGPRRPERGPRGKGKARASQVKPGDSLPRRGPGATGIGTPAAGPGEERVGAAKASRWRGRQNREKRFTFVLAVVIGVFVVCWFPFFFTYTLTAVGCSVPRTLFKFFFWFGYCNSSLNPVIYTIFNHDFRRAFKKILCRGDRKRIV

[4] = target: T4, human adrenergic receptor (ADR) β2 (Homo sapiens, UniProt P07550); test: ADRβ2 activation, Ca2+ influx (Fluo-8) in overexpressing chem-1 cells
T4 construct: host or cells: rat chem-1 cells

[5] = target: T5, human adrenergic receptor (ADR) α1A (Homo sapiens, UniProt P35348); test: ADRα1A activation, Ca2+ influx (Fluo-8) in overexpressing chem-1 cells; conditions: Chem-1
T5 construct: host or cells: rat chem-1 cells
T5 sequence (P35348 1-466): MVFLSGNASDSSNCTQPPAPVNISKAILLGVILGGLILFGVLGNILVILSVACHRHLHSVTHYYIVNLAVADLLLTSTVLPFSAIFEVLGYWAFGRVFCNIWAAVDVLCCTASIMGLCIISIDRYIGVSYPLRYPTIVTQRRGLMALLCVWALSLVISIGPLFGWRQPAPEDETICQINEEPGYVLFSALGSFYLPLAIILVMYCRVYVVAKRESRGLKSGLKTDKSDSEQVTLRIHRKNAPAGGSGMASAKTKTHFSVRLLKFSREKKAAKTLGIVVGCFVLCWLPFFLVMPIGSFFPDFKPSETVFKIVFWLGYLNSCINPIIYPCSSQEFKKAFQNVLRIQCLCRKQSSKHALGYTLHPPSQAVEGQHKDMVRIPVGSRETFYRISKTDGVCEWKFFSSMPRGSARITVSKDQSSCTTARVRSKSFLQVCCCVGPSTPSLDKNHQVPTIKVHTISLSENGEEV

[6] = target: T6, human adrenergic receptor (ADR) β1 (Homo sapiens, UniProt P08588); test: ADRβ1 activation, Ca2+ influx (Fluo-8) in overexpressing chem-1 cells; conditions: Chem-1, read-out: ADRβ1 Emax
T6 construct: host or cells: rat chem-1 cells
From the text: as §1, §2

[7] = % of maximal signal obtained by adrenaline, average (95% CI)
[8] = Ca2+ response, chem-1 cells, average (95% confidence interval), 7–9 experiments

T6 sequence (P08588 whole entry): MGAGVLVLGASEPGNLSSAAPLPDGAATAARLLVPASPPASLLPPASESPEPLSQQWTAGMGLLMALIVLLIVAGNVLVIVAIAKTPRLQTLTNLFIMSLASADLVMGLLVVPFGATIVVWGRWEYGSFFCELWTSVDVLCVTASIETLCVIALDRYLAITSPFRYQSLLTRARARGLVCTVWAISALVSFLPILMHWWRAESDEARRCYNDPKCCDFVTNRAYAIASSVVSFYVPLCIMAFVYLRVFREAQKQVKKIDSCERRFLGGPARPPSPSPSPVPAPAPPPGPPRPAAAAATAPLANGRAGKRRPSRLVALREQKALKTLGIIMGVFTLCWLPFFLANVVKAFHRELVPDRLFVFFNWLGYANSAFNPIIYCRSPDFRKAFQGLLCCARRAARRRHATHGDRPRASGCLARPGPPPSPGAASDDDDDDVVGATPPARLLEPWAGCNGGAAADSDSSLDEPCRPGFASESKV

Row | Compound | ADRα1B Emax [1, 7] | EC50 ([1]; Ca2+ response, chem-1 cells, average (95% confidence interval), 7–9 experiments, read-out: ADRα1B EC50) [µM] | ADRα1D Emax [2, 7] | EC50 [3, 8] [µM] | ADRβ2 Emax [4, 7] | EC50 [4, 8] [µM] | Emax [5] [%] | Emax ([1]; Chem-1, read-out: ADRα1B Emax) [%] | EC50 [2, 8] [µM] | Emax ([2]; Chem-1) [%] | Emax ([3]; Chem-1, % of maximal signal obtained by adrenaline, average (95% CI)) [%] | Emax [6] [%] | Emax ([4]; Chem-1) [%]
1 | Methyltyramine | - | > 300 | - | > 300 | - | > 300 |  |  |  |  |  |  | 
2 | CNC[C@H](O)c1ccc(O)c(O)c1 [Adrenaline, adrenaline, reference compound] |  |  |  |  |  |  | 98 | 99 | 0.0017 | 99 | 105 | 99 | 104
